Test: Stability of lutein in prepared cat food
Format: physicochemical
Details: diets mixed weekly, stored at −20° C. in sealed containers under nitrogen gas, analyzed periodically
Description: Prior to being fed to the cats, the lutein-containing diet was mixed with additional basal diet to achieve the desired lutein concentration. The final diets were mixed weekly and stored at −20° C. in sealed containers undernitrogen gas. […] Food and water were available ad libitum. Cats were housed (7 cats/pen; 1.5×5.0 m) in a temperature (20 to 22° C.) and light (14 h light) controlled facility.

SMILES: CC1=C[C@H](O)CC(C)(C)[C@H]1/C=C/C(C)=C/C=C/C(C)=C/C=C/C=C(C)/C=C/C=C(C)/C=C/C1=C(C)C[C@@H](O)CC1(C)C [lutein]
- Destruction of lutein in prepared food: no significant destruction
